Key:
[1] = system: Escherichia coli WP2uvrA pKM101; test: Ames test, pKM101
Procedure: (§1) Before the test, Salmonella Typhimurium (S. Typhimurium) TA97a, TA98, TA100, TA102, TA1535 and Escherichia coli WP2uvrA pKM101 (pKM101) were first checked for their genetic integrity, including biotin dependence, rfa marker (crystal violet), biotin, histidine dependence and presence of the plasmid pKM101 (ampicillin resistance) or pAQ1 (tetracycline resistance). […] The maximum concentration of EDT was also screened using a preliminary experiment.
(§2) DMSO (0.1 mL) was directly incorporated into 1.9 mL melted top agar as the vehicle control. […] Each strain (0.1 mL, 6–7 log10 CFU/mL) was added into 2 mL of top agar in which comprised 0.5 mL S9 (10%), serial concentrations of EDT (2000, 400, 80, 16 and 3.2 μg/plate), DMSO or control chemicals for testing with the S9. For testing without S9, 0.5 mL phosphate buffer saline (PBS, pH 7.4) replaced the S9 mix. Then, the obtained top agar was melted, poured onto the surface of […] and swirled to distribute the top agar to all surfaces of medium, followed by incubation at 37 °C for 48 h. The resultant colonies were counted manually as the number of revertant colonies per plate. The experiments were performed in triplicate and the results were expressed as the average ± SD.

[2] = system: Salmonella Typhimurium TA98; test: Ames test, TA98
Procedure: as §1, §2

CYP2E1 = target: T1, CYP2E1 (Rattus norvegicus, UniProt P05182); test: CYP450 inhibition in liver microsomes, probe substrate; assay type: biochemical; details: 30 min
T1 construct: from tissue; host or cells: rat liver microsomes
T1 sequence (P05182 whole entry): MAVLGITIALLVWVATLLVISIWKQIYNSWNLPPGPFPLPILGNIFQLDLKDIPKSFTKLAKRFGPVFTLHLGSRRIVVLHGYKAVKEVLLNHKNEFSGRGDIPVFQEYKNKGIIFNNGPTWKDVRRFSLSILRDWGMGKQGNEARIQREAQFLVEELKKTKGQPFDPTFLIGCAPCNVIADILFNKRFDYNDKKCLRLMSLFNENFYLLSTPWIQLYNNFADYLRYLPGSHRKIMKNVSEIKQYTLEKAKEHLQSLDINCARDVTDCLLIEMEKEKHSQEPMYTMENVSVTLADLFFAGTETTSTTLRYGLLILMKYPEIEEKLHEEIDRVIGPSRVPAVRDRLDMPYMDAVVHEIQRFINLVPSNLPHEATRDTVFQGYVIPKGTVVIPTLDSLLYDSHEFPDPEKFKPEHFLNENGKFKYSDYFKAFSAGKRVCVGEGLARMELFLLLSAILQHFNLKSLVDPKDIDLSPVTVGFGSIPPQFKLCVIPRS
Procedure: (§3) Inhibition effects of EDT on cytochrome P450 were evaluated with rat liver microsomes in vitro[43]. Briefly, 12.8 mg EDT was dissolved in methanol and stored at 4 °C as reserve solution. A variety of specific probe substrate (1 μL), EDT solution (1 μL), incubation mixture (193 μL) in which contained glucose-6-phosphate, glucose-6-phosphate dehydrogenase, potassium phosphate buffer, magnesium chloride buffer and PBS buffer, were added into 5 μL liver microsomes to start the reaction at 37 °C. The final concentration of EDT in each group was 0.1, 1, 5, 10, 50, 100 μM. After 30 min, the reaction was terminated by adding the same volume of pre-cooled acetonitrile into the incubation system. After centrifugation for 10 min (8000×g at 4 °C), 10 μL supernatant was removed to analyze the metabolites of specific probe substrate by HPLC. The effects of EDT on CYP450 subtypes were evaluated using formula as follow: (1 − Cn/C0) × 100%, where Cn was substrate metabolite of different concentration of EDT, and C0 was metabolite of blank group.

CYP3A4 = test: as above; assay type: biochemical; details: CYP3A4, rat liver microsomes
Procedure: as §3

CYP2A6 = test: as above; assay type: biochemical; details: CYP2A6, rat liver microsomes
Procedure: as §3

CYP2C9 = test: as above; assay type: biochemical; details: CYP2C9, rat liver microsomes
Procedure: as §3

CYP1A2 = target: T2, CYP1A2 (Rattus norvegicus, UniProt P04799); test: as above; assay type: biochemical; details: 30 min
T2 construct: from tissue; host or cells: rat liver microsomes
T2 sequence (P04799 1-513): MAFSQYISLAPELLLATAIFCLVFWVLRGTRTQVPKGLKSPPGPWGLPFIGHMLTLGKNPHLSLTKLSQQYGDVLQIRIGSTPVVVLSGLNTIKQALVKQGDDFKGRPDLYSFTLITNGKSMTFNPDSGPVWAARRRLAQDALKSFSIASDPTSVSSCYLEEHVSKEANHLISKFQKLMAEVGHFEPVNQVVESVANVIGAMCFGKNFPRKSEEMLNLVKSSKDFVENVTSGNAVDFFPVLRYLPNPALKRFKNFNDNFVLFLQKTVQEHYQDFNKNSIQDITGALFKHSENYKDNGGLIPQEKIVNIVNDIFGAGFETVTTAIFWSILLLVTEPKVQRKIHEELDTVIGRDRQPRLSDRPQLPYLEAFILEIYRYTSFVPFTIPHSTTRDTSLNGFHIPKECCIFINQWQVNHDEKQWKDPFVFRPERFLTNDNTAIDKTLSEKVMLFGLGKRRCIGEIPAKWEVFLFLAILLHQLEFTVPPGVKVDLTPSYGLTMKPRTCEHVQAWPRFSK
Procedure: as §3

CYP2C19 = test: as above; assay type: biochemical; details: CYP2C19, rat liver microsomes
Procedure: as §3

CYP2D6 = test: as above; assay type: biochemical; details: CYP2D6, rat liver microsomes
Procedure: as §3

[3] = Cytotoxicity assay (CCK-8), HEK293T; assay type: cell-based; details: human, HEK293T cells
Procedure: Cytotoxicity of EDT and tiamulin was studied against human hepatocellular carcinoma cells (HepG2) and human embryonic kidney 293T (HEK293T) cells following a protocol as published in our earlier reports[41],[42]. Cells were counted and inoculated into 96-well plates with approximately10^5 cells density for incubating 24 h at 37 °C. […] The same procedure was repeated three times. The percentages of cell viability were calculated by the formula: Cell viability (%) = [Asample ‒ Anegative]/[Apositve ‒ Anegative] × 100%.

[4] = system: Salmonella Typhimurium TA100; test: Ames test, TA100; assay type: cell-based
Procedure: as §1, §2

[5] = system: Salmonella Typhimurium TA97a; test: Ames test, TA97a
Procedure: as §1, §2

Compound: C=CC1(C)CC(OC(=O)CSc2nc(C)c(C(=O)OCC)c(C)n2)C2(C)C(C)CCC3(CCC(=O)C32)C(C)C1O (stereo not shown) [EDT, 14-O-[(5-ethoxycarbonyl-4,6-dimethylpyrimidine-2-yl)thioacetyl] mutilin]
- number of revertant colonies per plate ([1]; pKM101, 3.2 μg/plate, +S9): 50.33 ± 2.67
- number of revertant colonies per plate ([1]; pKM101, 3.2 μg/plate, −S9): 42.00 ± 3.00
- number of revertant colonies per plate ([1]; pKM101, 16 μg/plate, +S9): 54.00 ± 4.00
- number of revertant colonies per plate ([1]; pKM101, 16 μg/plate, −S9): 46.00 ± 5.00
- number of revertant colonies per plate ([1]; pKM101, 80 μg/plate, +S9): 44.00 ± 4.00
- number of revertant colonies per plate ([1]; pKM101, 80 μg/plate, −S9): 41.33 ± 3.67
- number of revertant colonies per plate ([1]; pKM101, 400 μg/plate, +S9): 53.00 ± 5.00
- number of revertant colonies per plate ([1]; pKM101, 400 μg/plate, −S9): 51.33 ± 3.67
- number of revertant colonies per plate ([1]; pKM101, 2000 μg/plate, +S9): 50.33 ± 3.67
- number of revertant colonies per plate ([1]; pKM101, 2000 μg/plate, −S9): 47.00 ± 4.00
- number of revertant colonies per plate ([2]; TA98, 3.2 μg/plate, +S9): 22.00 ± 2.00
- number of revertant colonies per plate ([2]; TA98, 3.2 μg/plate, −S9): 21.67 ± 1.67
- number of revertant colonies per plate ([2]; TA98, 16 μg/plate, +S9): 24.00 ± 4.00
- number of revertant colonies per plate ([2]; TA98, 16 μg/plate, −S9): 23.33 ± 2.67
- number of revertant colonies per plate ([2]; TA98, 80 μg/plate, +S9): 19.00 ± 3.00
- number of revertant colonies per plate ([2]; TA98, 80 μg/plate, −S9): 23.33 ± 2.67
- number of revertant colonies per plate ([2]; TA98, 400 μg/plate, +S9): 25.00 ± 4.00
- number of revertant colonies per plate ([2]; TA98, 400 μg/plate, −S9): 26.67 ± 3.33
- number of revertant colonies per plate ([2]; TA98, 2000 μg/plate, +S9): 29.67 ± 2.33
- number of revertant colonies per plate ([2]; TA98, 2000 μg/plate, −S9): 32.33 ± 3.67
- IC50 (CYP2E1): 88.5 µM
- IC50 at 30 min (CYP3A4): 9.25 µM
- IC50 at 30 min (CYP2A6): > 100 µM
- IC50 at 30 min (CYP2C9): > 100 µM
- IC50 (CYP1A2): > 100 µM
- IC50 at 30 min (CYP2C19): > 100 µM
- IC50 at 30 min (CYP2D6): > 100 µM
- CC50 at 6 h ([3]; 200 μM converted to μg/mL): > 115 µg/mL
- CC50 at 6 h ([3]; deduced from Fig. 5): > 200 µM
- number of revertant colonies per plate ([4]; TA100, 3.2 μg/plate, +S9): 119.67 ± 7.33
- number of revertant colonies per plate ([4]; TA100, 3.2 μg/plate, −S9): 109.00 ± 8.00
- number of revertant colonies per plate ([4]; TA100, 16 μg/plate, +S9): 103.67 ± 9.33
- number of revertant colonies per plate ([4]; TA100, 16 μg/plate, −S9): 101.00 ± 9.00
- number of revertant colonies per plate ([4]; TA100, 80 μg/plate, +S9): 118.67 ± 14.33
- number of revertant colonies per plate ([4]; TA100, 80 μg/plate, −S9): 105.33 ± 13.67
- number of revertant colonies per plate ([4]; TA100, 400 μg/plate, +S9): 134.33 ± 12.67
- number of revertant colonies per plate ([4]; TA100, 400 μg/plate, −S9): 129.67 ± 15.33
- number of revertant colonies per plate ([4]; TA100, 2000 μg/plate, +S9): 137.00 ± 14.00
- number of revertant colonies per plate ([4]; TA100, 2000 μg/plate, −S9): 122.67 ± 11.33
- number of revertant colonies per plate ([5]; 3.2 μg/plate, +S9): 57.67 ± 4.33
- number of revertant colonies per plate ([5]; 3.2 μg/plate, −S9): 52.00 ± 3.00
- number of revertant colonies per plate ([5]; 16 μg/plate, +S9): 46.00 ± 4.00
- number of revertant colonies per plate ([5]; 16 μg/plate, −S9): 44.33 ± 5.67
- number of revertant colonies per plate ([5]; 80 μg/plate, +S9): 50.33 ± 3.67
- number of revertant colonies per plate ([5]; 80 μg/plate, −S9): 53.33 ± 5.67
- number of revertant colonies per plate ([5]; 400 μg/plate, +S9): 54.33 ± 4.67
- number of revertant colonies per plate ([5]; 400 μg/plate, −S9): 56.00 ± 3.00
- number of revertant colonies per plate ([5]; 2000 μg/plate, +S9): 44.00 ± 5.00
- number of revertant colonies per plate ([5]; 2000 μg/plate, −S9): 52.00 ± 6.00
